Experimental data published in patent US20160304970A1, “GENE BIOMARKER TO DIAGNOSE METASTIC LIVER CANCER AND METHODS FOR TARGETING THE SAME” (University of Southern California, priority 2015, published 2016).

What was measured:
CD133 (+) Huh7 cells [1] = assay: Tumor spheroid formation assay; type: cell-based, human; details: CD133 (+) group; ATRA 5 μg/ml, SAHA 0.5 μg/ml; 2 weeks
Protocol: Freshly sorted CD133(+)/(−) Huh7 cells were plated in a low binding culture plate (NUNC 145397) containing 100 cells per well in 100 μl of culture medium with ATRA (5 μg/ml), SAHA (0.5 μg/ml), or a combination of both. After 2 weeks, colony numbers were counted.

CD133 (+) Huh7 cells [2] = assay: In vivo tumorigenicity, CD133 (+) Huh7 cells in NOG mice; design: species or system mouse
Protocol: The TUNEL staining was performed according to the manufacturer's instructions (4810-30-K, TREVIGEN). In brief, paraffin-embedded tumor sections from each group were de-paraffinized, re-hydrated, and washed twice in PBS. Samples were covered with Proteinase K solution for 30 minutes at room temperature and then washed two times in deionized water. Slides were immersed in quenching solution for 5 minutes at room temperature and then washed in PBS. Slides were incubated in TdT labeling buffer for 5 minutes, immersed with labeling reaction mix, and incubated at 37° C. for 1 hour in a humidity chamber. Samples were immersed in TdT stop buffer for 5 minutes and then washed twice in deionized water for 5 minutes each at room temperature. Samples were covered with Strep-HRP solution and incubated for 10 minutes at 37° C. and washed twice in PBS. Samples were incubated in DAB solution for 5 minutes and then washed in deionized water several times. The samples were counterstained with Methyl Green and mounted on slides for observation.
CD133 was conjugated to the terminal amine functionality on a polyethylene glycol block of polylactide-polyethylene glycol (PLA-PEG) as previously described (Swaminathan et al., 2013). PLGA (30 mg) was dissolved in 1 ml chloroform containing ATRA (6 mg). An oil-in-water emulsion was formed by emulsifying the polymer drug solution in 6 ml of 2.5% w/v aqueous PVA solution by sonication (Sonicator®XL, Misonix, N.Y.) for 5 minutes in an ice bath. The PLA-PEG-CD133 conjugate was dissolved in chloroform (8 mg/100 μl) and added to the oil-in-water emulsion with stirring. The emulsion was stirred for 18 hours at ambient conditions followed by 2 hours under vacuum to remove residual chloroform. Nanoparticles were recovered by ultracentrifugation (35,000 rpm for 35 minutes at 4° C.; OptimaTMLE-80K, Beckman, Palo Alta, Calif.) and washed three times with deionized water to remove excess PVA and unencapsulated drugs. The nanoparticle suspension was then lyophilized (Labconco, FreeZone 4.5, Kansas City, Mo.). Before injection, the lyophilized nanoparticles were re-dissolved in PBS and filtered with a 0.22 micron filter.
A half million freshly sorted CD133 (+) TICs were suspended in 100 μl of Matrigel™ (BD) and injected subcutaneously into NOD/Shi-scid/IL-2Rγ^null(NOG) mice, six mice per group. After the tumor volume reached 100 mm^3, animals received one intravenous dose of CD133-conjugated RA nanoparticle (5 μg/ml) and SAHA (0.5 μg/ml) daily. The animals were monitored regularly for tumor growth and survival every day. All animals work was performed according to national and international guidelines. Animal studies were based on a protocol approved by the Institutional Animal Care and Use Committee at University of Southern California.

[3] = NOG mice, CD133 (+) Huh7 tumors

SMILES: CC1=C(/C=C/C(C)=C/C=C/C(C)=C/C(=O)O)C(C)(C)CCC1 [ATRA, all-trans retinoic acid]
- reduction of colony numbers, tumor spheroid formation (CD133 (+) Huh7 cells [1]): 83%
- tumor growth (CD133 (+) Huh7 cells [2]; ATRA 5 μg/ml in CD133 antibody-conjugated nanoparticles, SAHA 0.5 μg/ml, after 4 days of treatment): did not reduce or even promote tumor growth
- TUNEL staining of tumors (CD133 (+) Huh7 cells [2]; [3]): TUNEL-positive tumor cells
- tumor morphology, hematoxylin and eosin stained sections (CD133 (+) Huh7 cells [2]; [3]): necrotic regions
